Measured values reported in patent US6552021B2, “Pharmaceutical compounds” (Xenova Limited, priority 2000, dated 2003).
Read-outs that look alike come from different tables or passages of the source.

Columns and labels:
[1] = test system: COR-L23/R human non-small cell lung carcinoma cell line which overexpresses multidrug resistance associated protein (MRP); assay: Cytotoxicity in drug resistant COR-L23/R cells (SRB assay); type: cell-based; conditions: for Rf (resistance factor): IC50 in L23/R divided by IC50 in L23/P; for IC50: L23/R cells (MRP overexpressing), 5-6 days incubation, SRB
Description: (§1) The cytotoxicity of the compounds described herein was also measured using the COR-L23 parental (COR-L23/P) human non-small cell lung carcinoma cell line and also the drug resistant human non-small cell lung carcinoma cell line COR-L23/R which overexpresses multidrug resistance associated protein (MRP).
(§2) L23/P and L23/R cells were pipetted into 96-well tissue culture plates and then allowed to incubate at 37° C. for 4 h. A range of concentrations from 0.01 nM to 5 μM of compounds of formula (I) or the standards TAS-103, Doxorubicin and Topotecan were then added. The plates were incubated for 5-6 days before proliferation was assessed using the sulphurhodamine B (SRB) assay as described by Skehan et al, J Natl Cancer Inst 1990, 82, pp1107-1112.

[2] = test system: amsacrine-resistant Jurkat human leukaemia cell line (JLA); assay: Cytotoxicity in amsacrine-resistant Jurkat cells (JLA); type: cell-based; conditions: for Rf(JLA/JLC): IC50 in JLA divided by IC50 in JLC; for IC50: JLA cells (amsacrine-resistant)
Description: (§3) The cytotoxicity of the compounds described herein was also measured using the Jurkat human leukaemia cell line (JLC) and also the amsacrine-resistant Jurkat human leukaemia cell line (JLA) and the doxorubicin-resistant Jurkat human leukaemia cell line (JLD). The cytotoxicity, as measured by the IC50 (concentration required to give 50% cell kill) in the JLA or JLD cell line divided by the cytotoxicity in the JLC cell line gives an indication of the degree to which a compound may be affected by atypical drug resistance and is termed the resistance factor (Rf) of the compound. The method used has been described previously (Finlay et al, Eur J. Cancer 32A, 708-714, 1996). Compounds were active in the range 1 nM to 5 μM.

[3] = test system: Jurkat human leukaemia cell line (JLC); assay: Cytotoxicity in Jurkat cells (JLC); type: cell-based
Description: as §3

[4] = test system: COR-L23 parental (COR-L23/P) human non-small cell lung carcinoma cell line; assay: Cytotoxicity in COR-L23 parental cells (SRB assay); type: cell-based
Description: The cytotoxicity of the compounds described herein was also measured using the COR-L23 parental (COR-L23/P) human non-small cell lung carcinoma cell line and also the drug resistant human non-small cell lung carcinoma cell line COR-L23/R which overexpresses multidrug resistance associated protein (MRP). The cytotoxicity, as measured by the IC50 (concentration required to give 50% cell kill) in the L23/R cell line divided by the cytotoxicity in the L23/P cell line gives an indication of the degree to which a compound may be affected by MRP-dependant MDR and is termed the resistance factor (Rf) of the compound.
as §2

[5] = test system: H69/LX4 human small cell lung carcinoma cell line which overexpresses P-glycoprotein (Pgp); assay: Cytotoxicity in drug resistant H69/LX4 cells (AlamarBlue); conditions: for Rf (resistance factor): IC50 in H69/LX4 divided by IC50 in H69/P
Description: (§4) The cytotoxicity of compounds of formula (I) was measured using the H69 parental (H69/P) human small cell lung carcinoma cell line and the drug resistant human small cell lung carcinoma cell line H69/LX4 which overexpresses P-glycoprotein (Pgp).
(§5) H69/P and H69/LX4 cells were pipetted into 96-well tissue culture plates and then allowed to incubate at 37° C. for 4 h. A range of concentrations from 0.01 nM to 5 μM of compounds of formula (I) or the standards TAS-103, Doxorubicin and Topotecan were then added. The plates were incubated for 5-6 days before adding AlamarBlue to each well and returning the plates to the incubator for 5-8 h to allow colour development. The cell numbers in the plates at the end of this period were directly proportional to the absorbance measured at a wavelength of 570 nm (reference wavelength 600 nm).

[6] = test system: doxorubicin-resistant Jurkat human leukaemia cell line (JLD); assay: Cytotoxicity in doxorubicin-resistant Jurkat cells (JLD); type: cell-based; conditions: for Rf(JLD/JLC): IC50 in JLD divided by IC50 in JLC; for IC50: JLD cells (doxorubicin-resistant)
Description: as §3

[7] = test system: H69 parental (H69/P) human small cell lung carcinoma cell line; assay: Cytotoxicity in H69 parental cells (AlamarBlue); type: cell-based; conditions: 5-6 days incubation, concentration required to give 50% cell kill
Description: as §4, §5

[8] = test system: topoisomerase II; assay: Stabilization of cleavable complexes with topoisomerase II; type: biochemical; conditions: range where an increase in cleavable complexes was observed relative to controls
Source text: (§6) Compounds were also studied for their ability to stabilize cleavable complexes in the presence of either topoisomerase I or II essentially as described previously (Finlay et al, Eur. J. Cancer 32A, 708-714, 1996). Presence of cleavable complexes was indicated by an increase in the number and intensity of bands observed after electrophoresis and autoradiography. The results are expressed as the effective concentration range where an increase in cleavable complexes was observed relative to controls in the absence of drug.

[9] = biological target: T1, topoisomerase I (Homo sapiens, UniProt P11387); assay: Stabilization of cleavable complexes with topoisomerase I; type: biochemical; conditions: range where an increase in cleavable complexes was observed relative to controls
T1 sequence (P11387 1-765): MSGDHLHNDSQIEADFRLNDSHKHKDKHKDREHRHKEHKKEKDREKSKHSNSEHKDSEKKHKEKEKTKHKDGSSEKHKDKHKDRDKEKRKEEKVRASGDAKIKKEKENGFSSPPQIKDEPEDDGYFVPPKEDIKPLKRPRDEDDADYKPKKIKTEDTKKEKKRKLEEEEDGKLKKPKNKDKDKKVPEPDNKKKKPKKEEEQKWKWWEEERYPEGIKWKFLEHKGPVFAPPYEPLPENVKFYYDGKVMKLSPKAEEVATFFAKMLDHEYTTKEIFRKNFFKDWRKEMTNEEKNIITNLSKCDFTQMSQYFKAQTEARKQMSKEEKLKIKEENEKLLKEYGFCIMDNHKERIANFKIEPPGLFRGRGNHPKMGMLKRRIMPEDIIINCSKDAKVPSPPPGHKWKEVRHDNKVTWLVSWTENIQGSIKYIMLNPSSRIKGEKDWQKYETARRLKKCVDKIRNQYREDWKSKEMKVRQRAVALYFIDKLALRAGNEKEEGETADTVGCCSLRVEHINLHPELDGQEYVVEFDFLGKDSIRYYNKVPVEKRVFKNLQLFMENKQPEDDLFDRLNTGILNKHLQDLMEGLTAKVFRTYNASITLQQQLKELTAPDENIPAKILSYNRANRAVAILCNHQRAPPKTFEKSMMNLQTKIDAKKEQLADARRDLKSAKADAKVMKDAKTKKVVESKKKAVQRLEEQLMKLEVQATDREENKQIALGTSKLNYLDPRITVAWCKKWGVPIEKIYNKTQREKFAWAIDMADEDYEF
Source text: as §6

[10] = Cytotoxicity in drug resistant COR-L23/R cells (SRB assay); type: cell-based, human; conditions: Homo sapiens, COR-L23/R; L23/R cells (MRP overexpressing), 5-6 days incubation, SRB
Description: as §1, §2

[11] = Homo sapiens, COR-L23, 5-6 days incubation
[12] = Homo sapiens, read-out: H69/LX4 IC50

Effective concentration range, Topoisomerase II [8] [µM]	Effective concentration range, Topoisomerase I [9] [µM]	SMILES	Rf (resistance factor) [1]	IC50 [1] [nM]	Rf(JLA/JLC) [2]	IC50 [2] [nM]	IC50 [3] [nM]	IC50 ([4]; 5-6 days incubation) [nM]	IC50 [5] [nM]	Rf (resistance factor) [5]	Rf(JLD/JLC) [6]	IC50 [6] [nM]	IC50 [7] [nM]	IC50 [10] [nM]	IC50 ([2]; Homo sapiens, Jurkat) [nM]	IC50 ([3]; Homo sapiens, Jurkat) [nM]	IC50 [4, 11] [nM]	IC50 [5, 12] [nM]	IC50 ([6]; Homo sapiens, Jurkat) [nM]	IC50 ([5]; read-out: H69/LX4 IC50, H69/LX4 cells (Pgp overexpressing), 5-6 days incubation) [nM]
–	–	CN(C)CCNC(=O)c1cccc2nc3ccc4cnccc4c3nc12 [Compound 2, Pyrido[4,3-α]phenazine-11-carboxylic acid (2-dimethylamino-ethyl)-amide]	2.5	56	3	84	28	22	56	0.6	2.8	78	88	–	–	–	–	–	–	–
–	–	CN(C)CCNC(=O)c1cccc2nc3ccc4ncccc4c3nc12 [Compound 3, Pyrido[3,2-α]phenazine-11-carboxylic acid (2-dimethylamino-ethyl)-amide]	1.5	71	2.8	235	74	48	133	1.1	0.7	52	123	–	–	–	–	–	–	–
0.1 to 3.0	0.1 to 3.0	COc1nccc2c1ccc1nc3cccc(C(=O)NCCN(C)C)c3nc12 [Compound 5, 4-Methoxypyrido[4,3-α]phenazine-11-carboxylic acid (2-dimethylamino-ethyl)-amide]	1.1	16	0.7	12	17	14	26	1.3	0.7	12	21	–	–	–	–	–	–	–
0.1 to 3.0	0.1 to 3.0	COc1nccc2c1ccc1nc3cccc(C(=O)N[C@H](C)CN(C)C)c3nc12 [Compound 6, 4-Methoxypyrido[4,3-α]phenazine-11-carboxylic acid (2-dimethylamino-1-(R)-methyl-ethyl)-amide]	1.3	15	0.7	7	10	12	29	1.2	0.9	9	24	–	–	–	–	–	–	–
–	–	COc1nccc2c1ccc1nc3cccc(C(=O)N[C@H](CO)CN(C)C)c3nc12 [Compound 9, 4-Methoxypyrido[4,3-α]phenazine-11-carboxylic acid (2-dimethylamino-1-(S)-hydroxymethyl-ethyl)-amide]	1.5	6	–	–	–	4	28	1.2	–	–	24	–	–	–	–	–	–	–
–	–	CN(C)CCNC(=O)c1cccc2nc3ccc4cnn(C)c4c3nc12 [Compound 13, 1-Methyl-1H-pyrazolo[3,4-α]phenazine-10-carboxylic acid (2-dimethylamino-ethyl)-amide]	–	–	1	44	44	–	97	0.9	1.1	48	109	–	–	–	–	–	–	–
–	–	COc1cccc2c1C(=O)c1c(O)c3c(c(O)c1C2=O)C[C@@](O)(C(=O)CO)C[C@@H]3O[C@H]1C[C@H](N)[C@H](O)[C@H](C)O1 [Doxorubicin, reference compound]	16.1	–	3.7	–	–	–	–	135	–	–	–	327	25.9	7	20.3	3700	109	–
–	–	CC[C@@]1(O)C(=O)OCc2c1cc1n(c2=O)Cc2cc3c(CN(C)C)c(O)ccc3nc2-1 [Topotecan, reference compound]	1.5	–	–	–	–	–	–	3.9	–	–	–	20.8	–	–	13.6	61.5	–	–

SMILES	Effective concentration range, Topoisomerase II [8] [µM]	Effective concentration range, Topoisomerase I [9] [µM]	Rf (resistance factor) [1]	IC50 [1] [nM]	Rf(JLA/JLC) [2]	IC50 [2] [nM]	IC50 [3] [nM]	IC50 ([4]; 5-6 days incubation) [nM]	IC50 [5] [nM]	Rf (resistance factor) [5]	Rf(JLD/JLC) [6]	IC50 [6] [nM]	IC50 [7] [nM]	IC50 [10] [nM]	IC50 ([2]; Homo sapiens, Jurkat) [nM]	IC50 ([3]; Homo sapiens, Jurkat) [nM]	IC50 [4, 11] [nM]	IC50 [5, 12] [nM]	IC50 ([6]; Homo sapiens, Jurkat) [nM]	IC50 ([5]; read-out: H69/LX4 IC50, H69/LX4 cells (Pgp overexpressing), 5-6 days incubation) [nM]
CN(C)CCNc1nc2cc(O)ccc2c2c1C(=O)c1ccccc1-2 [TAS-103, reference compound]	0.3 to 10.0	0.3 to 10.0	1.3	22	55.9	302	5.4	16.3	–	1.1	71.1	384	21	–	–	–	–	–	–	22
